# Experimental data as given in patent publication US9670226B2, “Sesquiterpenoids” (National Institute of Biological Sciences, Beijing, priority 2014, dated 2017).
# Tests used:
# [1] = test system: phosphorylation of IκBα; experiment: LPS induced NF-κB activation: IκBα phosphorylation in RAW264.7 cells (western blot); assay type: cell-based, mouse; details: Raw 264.7 cells pre-incubated with 4 μM for 2 h, 20 ng/ml LPS, 20 minutes, western blot
# [2] = target: T1, IKKβ (Homo sapiens, UniProt O14920); experiment: IKKβ kinase inhibition; assay type: biochemical; details: table of derivatives; read-out: IKKβ (IC50)
# T1 sequence (O14920 1-756): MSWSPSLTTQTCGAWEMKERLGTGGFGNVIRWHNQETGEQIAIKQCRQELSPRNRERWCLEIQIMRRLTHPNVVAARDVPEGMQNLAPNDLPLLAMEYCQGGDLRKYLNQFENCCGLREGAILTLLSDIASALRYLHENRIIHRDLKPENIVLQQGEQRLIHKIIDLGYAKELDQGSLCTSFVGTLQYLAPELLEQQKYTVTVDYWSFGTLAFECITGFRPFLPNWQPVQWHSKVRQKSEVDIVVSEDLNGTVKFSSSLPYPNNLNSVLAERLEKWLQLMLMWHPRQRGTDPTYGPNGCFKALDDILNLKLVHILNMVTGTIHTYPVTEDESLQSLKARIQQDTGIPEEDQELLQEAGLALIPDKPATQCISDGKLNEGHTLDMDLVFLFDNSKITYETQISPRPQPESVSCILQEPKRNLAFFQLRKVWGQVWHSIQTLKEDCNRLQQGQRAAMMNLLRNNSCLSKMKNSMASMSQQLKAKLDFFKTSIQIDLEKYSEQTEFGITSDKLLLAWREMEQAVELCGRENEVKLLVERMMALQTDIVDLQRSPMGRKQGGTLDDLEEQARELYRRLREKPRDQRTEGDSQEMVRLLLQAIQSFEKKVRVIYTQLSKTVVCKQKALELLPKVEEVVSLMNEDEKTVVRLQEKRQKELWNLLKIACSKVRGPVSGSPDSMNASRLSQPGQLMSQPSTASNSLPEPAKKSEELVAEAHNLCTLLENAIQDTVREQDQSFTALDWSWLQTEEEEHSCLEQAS
# Excerpt: To further explore how (+)-ainsliadimer A inactivates IKKα/β, we conducted the molecular dynamics (MD) simulations using the first crystal structure of IKKβ^29 to sample the conformational states of IKKβ upon 223 binding. […] We next asked whether 223 could directly affect IKKβ kinase activity.
# [3] = test system: NF-κB activation; experiment: NF-κB activation (SAR analogs and biotin probes)
# Excerpt: In order to evaluate which of them is critical for the binding of 223, we individually mutated these nine cysteine residues of IKKβ into alanines.
# [4] = test system: BGC-823 human gastric adenocarcinoma xenograft; experiment: BGC-823 xenograft in nude mice; assay type: in vivo; details: 223 25 mg/kg, qdx8; HCPT 30 mg/kg, q6dx2
# Method: Next we further examined anti-tumor effect of 223 in vivo. Nude mice bearing a BGC-823 human gastric adenocarcinoma xenograft were treated with vehicle or 223 (25 mg/kg, qdx8) or 10-hydroxycamptothecin (HCPT), a widely used anti-tumor drug (30 mg/kg, q6dx2).
# [5] = target: T1, IKKβ; experiment: Pull-down from 293T cell lysates with streptavidin agarose beads; assay type: binding
# Method: (§1) To identify cellular proteins interacting with 223, we performed pull-down experiments using Probe and NC as the positive and negative probe, respectively. 293T cell lysates were incubated with streptavidin agarose beads which were pre-coupled with positive probe or negative probe. The proteins precipitated by streptavidin agarose beads were resolved by SDS-PAGE and stained with silver. […] We further monitored the presences of IKKα and IKKβ in the precipitates by immunoblotting.
# [6] = target: T2, IKKα (Homo sapiens, UniProt O15111); experiment: as above; assay type: binding
# T2 construct: endogenous in cells; host or cells: 293T
# T2 sequence (O15111 whole entry): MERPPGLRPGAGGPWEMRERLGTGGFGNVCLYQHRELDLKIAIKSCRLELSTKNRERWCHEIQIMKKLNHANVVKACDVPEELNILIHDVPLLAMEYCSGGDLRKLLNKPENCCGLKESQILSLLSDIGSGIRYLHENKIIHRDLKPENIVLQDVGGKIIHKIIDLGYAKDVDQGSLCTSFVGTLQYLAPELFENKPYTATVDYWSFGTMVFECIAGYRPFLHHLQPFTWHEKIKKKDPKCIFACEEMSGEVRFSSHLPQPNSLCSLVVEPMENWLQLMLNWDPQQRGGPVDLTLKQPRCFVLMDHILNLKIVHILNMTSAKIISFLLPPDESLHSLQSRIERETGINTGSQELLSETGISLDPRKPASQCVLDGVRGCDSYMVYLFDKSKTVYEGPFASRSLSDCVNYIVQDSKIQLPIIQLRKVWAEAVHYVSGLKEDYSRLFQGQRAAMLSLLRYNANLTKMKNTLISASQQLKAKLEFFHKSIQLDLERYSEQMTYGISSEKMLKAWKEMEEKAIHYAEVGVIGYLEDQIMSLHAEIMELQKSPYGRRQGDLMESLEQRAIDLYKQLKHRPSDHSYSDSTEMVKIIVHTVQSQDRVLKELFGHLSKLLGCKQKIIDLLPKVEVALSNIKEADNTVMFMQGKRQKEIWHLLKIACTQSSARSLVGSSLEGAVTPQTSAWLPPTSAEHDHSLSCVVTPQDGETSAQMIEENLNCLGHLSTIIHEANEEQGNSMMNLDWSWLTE
# Method: as §1
# [7] = target: T3, recombinant Flag-IKKα (Homo sapiens, UniProt O15111); experiment: Binding to purified recombinant protein (SDS-PAGE, streptavidin blot); details: increasing concentrations
# T3 construct: made in house; host or cells: 293T cells (transient transfection, anti-Flag purification)
# T3 sequence (O15111 whole entry): as above
# Method: To determine whether 223 directly binds to IKKα and IKKβ, we generated recombinant IKKα and IKKβ proteins for further analysis. 293T cells were transfected with Flag-IKKα or Flag-IKKβ plasmid, and the recombinant Flag-IKKα or Flag-IKKβ was captured by anti-Flag agarose beads and was then eluted off the beads using Flag peptide. The purified Flag-IKKα or Flag-IKKβ was incubated with DMSO or increasing concentrations of Probe, and then the mixtures were resolved by SDS-PAGE, followed by immunoblotting with streptavidin or anti-Flag antibody.
# [8] = test system: peptides 1A, 2A, 1S and 2S (cysteine 46 replaced by alanine or serine); experiment: Peptide binding by MALDI-TOF; set-up: species or system human
# [9] = test system: IKKβ C46 containing peptide (#1, #2; amino acids 41-53); experiment: Peptide binding by MALDI-TOF; set-up: species or system human
# Method: (§2) This peptide was tested for binding to 223 and probe by using MALDI-TOF (Matrix-Assisted […] Desorption/Ionization Time of Flight). m/z values at 2,047.978 and 2,479.259 were well matched with the calculated weights of #1+223 and #1+Probe, respectively. […] As expected, the peptide #2 containing amino acids 41-53 of human IKKβ interacted with both 223 and probe.
# [10] = target: T4, IKKβ C46 containing peptide (#1, #2; amino acids 41-53) (Homo sapiens, UniProt O14920); experiment: Peptide binding by MALDI-TOF
# T4 construct: encompasses amino acids 41-53 of human IKKβ; made in house; host or cells: chemical peptide synthesis
# Method: as §2
# [11] = test system: IKKβ C215 containing peptides #3 and #4; experiment: Peptide binding by MALDI-TOF; set-up: species or system human
smiles,measurement,setting,value
C=C1C(=O)O[C@@H]2[C@@H]3[C@@H](C[C@@]4(O)[C@]3(O)CC[C@]43C(=O)C[C@H]4C(=C)CC[C@H]5C(=C)C(=O)O[C@@H]5[C@H]43)C(=C)CC[C@@H]12 [Compound 1],phosphorylation of IκBα,[1],effectively blocked
same,IC50,[2],0.0757 µM
C=C1C(=O)O[C@@H]2[C@@H]3[C@@H](C[C@@]45OC(C)(C)O[C@@]34CC[C@]53C(=O)C[C@H]4C(=C)CC[C@H]5C(=C)C(=O)O[C@@H]5[C@H]43)C(=C)CC[C@@H]12 [Compound 2],phosphorylation of IκBα,[1],effectively blocked
same,IC50,[2],0.056 µM
C=C1CC[C@H]2C(CN(C)C)C(=O)O[C@@H]2[C@@H]2[C@H]1C[C@@]13OC(C)(C)O[C@@]21CC[C@]31C(=O)C[C@H]2C(=C)CC[C@H]3C(CN(C)C)C(=O)O[C@@H]3[C@H]21 (stereo partly shown) [Compound 3],phosphorylation of IκBα,[1],effectively blocked
same,IC50,[2],0.0418 µM
C=C1C(=O)O[C@@H]2[C@@H]3[C@@H](C[C@H](O)[C@]34CC[C@]3(O)[C@@H]5[C@H]6OC(=O)C(=C)[C@@H]6CCC(=C)[C@@H]5C[C@]43O)C(=C)CC[C@@H]12 [Compound 224],biological activity (initial SAR),[3],fully retain the biological activity
C=C1CC[C@@H]2[C@H](OC(=O)[C@H]2C)[C@@H]2[C@H]1C[C@@]1(O)[C@]2(O)CC[C@]12C(=O)C[C@H]1C(=C)CC[C@@H]3[C@H](OC(=O)[C@H]3C)[C@H]12 [Compound 225],biological activity (initial SAR),[3],inactive
"CC[C@@]1(O)C(=O)OCc2c1cc1n(c2=O)Cc2cc3cc(O)ccc3nc2-1 [HCPT, 10-hydroxycamptothecin, reference compound]",side effects and body weight during administration,[4],significant body weight loss
C=C1C(=O)O[C@@H]2[C@@H]3[C@@H](C[C@H](OC(=O)CCOCCOCCOCCNC(=O)CCCC[C@@H]4SC[C@@H]5NC(=O)N[C@@H]54)[C@]34CC[C@]3(O)[C@@H]5[C@H]6OC(=O)C(=C)[C@@H]6CCC(=C)[C@@H]5C[C@]43O)C(=C)CC[C@@H]12 [Probe],pull-down of IKKβ (immunoblotting),[5],specifically pulled down
same,pull-down of IKKα (immunoblotting),[6],specifically pulled down
same,interaction with recombinant IKKα,[7],strong interaction
same,"binding to peptides 1A, 2A, 1S and 2S",[8],lost the ability to bind
same,interaction with peptide #2,[9],interacted
same,binding to peptide #1,[10],could bind
same,association with peptides #3 and #4,[11],no association
